Structures can show the parent of a compound that is named as a salt.
Experiments:
[1] = biological target: T1, human jejunal NK2 receptor (Homo sapiens, UniProt P21452); test: Antagonism of iodinated tachykinin binding to NK2 receptor (Example A); settings: HSKR-1 cells (mouse 3T3 fibroblasts expressing the human jejunal NK2 receptor); 125 iodohistidyl-1-neurokinin A 0.1 nM; mean of several experiments
T1 construct: expressed in transfected cells; host or cells: HSKR-1 cells (mouse 3T3 fibroblasts)
T1 sequence (P21452 1-398): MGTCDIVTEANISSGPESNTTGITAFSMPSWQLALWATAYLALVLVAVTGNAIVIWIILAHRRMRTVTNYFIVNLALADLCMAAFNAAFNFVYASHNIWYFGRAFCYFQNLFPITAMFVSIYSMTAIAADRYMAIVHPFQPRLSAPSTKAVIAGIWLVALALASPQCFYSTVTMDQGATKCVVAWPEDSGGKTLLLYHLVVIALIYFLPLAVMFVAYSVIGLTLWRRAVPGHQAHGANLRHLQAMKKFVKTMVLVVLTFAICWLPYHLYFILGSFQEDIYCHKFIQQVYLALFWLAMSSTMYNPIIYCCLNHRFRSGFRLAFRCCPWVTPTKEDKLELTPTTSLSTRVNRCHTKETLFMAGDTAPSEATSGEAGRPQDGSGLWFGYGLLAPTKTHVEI
Method: (§1) Antagonism of iodinated tachykinin binding to NK1 and NK2 receptors by putative antagonists
(§2) One skilled in the art can determine the NK1 receptor and NK2 receptor affinity in vitro as follows. The NK1 receptor affinity of tachykinin antagonists is evaluated in guinea pig lungs (Keystone Biologicals, Cleveland, OH) and affinity for the NK2 receptor is evaluated in HSKR-1 cells (which are mouse 3T3 fibroblasts expressing the human jejunal NK2 receptor). Tissues or cells are homogenized with a Polytron in 15 volumes of 50 mM Tris-HCl buffer (pH 7.4, 4°C) and centrifuged. The pellet is resuspended in Tris-HCl buffer and is centrifuged; the pellet is washed twice by resuspension. The final pellet is resuspended at a concentration of 40 mg/ml for tissues and 20 mg/ml for cells in incubation buffer and remains at room temperature for at least 15 min prior to use. […] Filter bound radioactivity is quantitated in a gamma counter. Nonspecific binding is defined as binding in the presence of 1 µM substance P or neurokinin A. Specific binding is calculated by subtracting nonspecific binding from total binding. Competition of iodinated SP or NKA binding by test compounds or standards is expressed as a percentage of this maximum binding. […]

NK1 receptor = biological target: T2, NK1 receptor (Cavia porcellus, UniProt P30547); test: Antagonism of iodinated tachykinin binding to NK1 receptor (Example A); settings: guinea pig lungs membranes; 125I-Bolton Hunter Lys-3 labeled substance P 0.1 nM; mean of several experiments
T2 construct: evaluated in guinea pig lungs (Keystone Biologicals, Cleveland, OH); tissue Keystone Biologicals, Cleveland, OH; host or cells: guinea pig lung membrane homogenate
Method: as §1, §2

T2 sequence (P30547 whole entry): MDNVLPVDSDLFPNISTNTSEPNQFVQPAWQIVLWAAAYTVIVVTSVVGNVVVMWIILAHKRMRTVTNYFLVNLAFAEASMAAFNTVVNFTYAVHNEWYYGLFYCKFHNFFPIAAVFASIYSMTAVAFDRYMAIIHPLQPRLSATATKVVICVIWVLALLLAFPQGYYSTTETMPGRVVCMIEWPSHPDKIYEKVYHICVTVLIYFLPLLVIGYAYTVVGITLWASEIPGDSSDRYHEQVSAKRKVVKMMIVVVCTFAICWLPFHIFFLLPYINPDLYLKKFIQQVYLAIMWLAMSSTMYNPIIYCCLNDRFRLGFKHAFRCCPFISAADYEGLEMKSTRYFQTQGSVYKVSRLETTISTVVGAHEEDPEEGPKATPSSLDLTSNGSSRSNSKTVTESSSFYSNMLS

`CCOC(=O)CN1CCN(C(=O)C2(c3ccccc3)CCN(CC[C@H](CN(C)C(=O)c3cc(-n4cnnn4)ccc3OC)c3ccc(Cl)c(Cl)c3)CC2)CC1` [Example 1.2, (S)-N-methyl-N-(4-(4-phenyl-4-((4-carboethoxymethylpiperazin-1-yl)carboxamido)piperidin-1-yl) 2-(3,4-dichlorophenyl)butyl)-2-methoxy-5-(1H-tetrazol-1-yl)benzamide hydrochloric acid salt] showed an IC50 [1] of 178 nM and an IC50 (NK1 receptor) of 23 nM.

Reference: patent publication EP1077942B1, “CARBOXY SUBSTITUTED CARBOXAMIDE DERIVATIVES AS TACHYKININ RECEPTOR ANTAGONISTS” (Aventis Pharmaceuticals Inc., priority 1998, dated 1999)
